Results as given in patent US9169254B2, “Spiroimidazolone derivative” (Chugai Seiyaku Kabushiki Kaisha, priority 2009, dated 2015).

Target: T1, human PTH1 receptor (Homo sapiens, UniProt Q03431)
T1 sequence (Q03431 27-593): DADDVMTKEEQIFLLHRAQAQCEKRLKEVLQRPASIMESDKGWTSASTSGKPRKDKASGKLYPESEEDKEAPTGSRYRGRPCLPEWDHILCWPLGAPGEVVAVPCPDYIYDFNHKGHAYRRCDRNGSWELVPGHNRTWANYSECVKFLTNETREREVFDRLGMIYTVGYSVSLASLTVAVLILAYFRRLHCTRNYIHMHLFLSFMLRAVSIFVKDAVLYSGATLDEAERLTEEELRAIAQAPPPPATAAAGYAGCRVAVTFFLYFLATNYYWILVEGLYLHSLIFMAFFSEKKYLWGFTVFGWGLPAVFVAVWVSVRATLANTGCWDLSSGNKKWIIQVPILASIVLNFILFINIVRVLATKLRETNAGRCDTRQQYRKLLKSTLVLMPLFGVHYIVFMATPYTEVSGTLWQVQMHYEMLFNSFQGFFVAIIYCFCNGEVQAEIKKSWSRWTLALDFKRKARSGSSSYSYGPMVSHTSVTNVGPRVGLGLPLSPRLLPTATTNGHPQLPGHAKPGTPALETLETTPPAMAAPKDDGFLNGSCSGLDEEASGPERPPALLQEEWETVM
Experiment: In vitro cAMP signal activity in HKRK-B7 cells (LLC-PK1 cells overexpressing the human PTH1 receptor)
Format: cell-based
Conditions: HKRK-B7 cells, compound at 1×10^−3 M

[1] = cAMP produced as percentage of that produced by hPTH(1-34) at 100 nM

SMILES	cAMP production activity (%) [1] [%]	cAMP production activity (%) ([…], 0.1 µM)
Cc1cc(C(=O)N2CCC(N(C)C)CC2)cc(C)c1/C=C/S(=O)(=O)N1CCC2(CC1)N=C(c1cccc(OC(F)(F)F)c1)NC2=O [Compound 405, 8-{(E)-2-[4-(4-dimethylamino-piperidine-1-carbonyl)-2,6-dimethyl-phenyl]-ethenesulfonyl}-2-(3-trifluoromethoxy-phenyl)-1,3,8-triaza-spiro[4.5]dec-1-en-4-one]	7.7	
Cc1cc(OC[C@H](O)CO)ccc1CCS(=O)(=O)N1CCC2(CC1)N=C(c1cccc(OC(F)(F)F)c1)NC2=O [Compound 325, 8-{2-[4-((R)-2,3-Dihydroxy-propoxy)-2-methyl-phenyl]-ethanesulfonyl}-2-(3-trifluoromethoxy-phenyl)-1,3,8-triaza-spiro[4.5]dec-1-en-4-one]	61	
Cc1cc(CN2C(=O)CCC2=O)cc(C)c1/C=C/S(=O)(=O)N1CCC2(CC1)N=C(C1CCC(CCC(F)(F)F)CC1)NC2=O (stereo not drawn) [Compound 557, 1-[3,5-dimethyl-4-((E)-2-{4-oxo-2-[4-(3,3,3-trifluoro-propyl)-cyclohexyl]-1,3,8-triaza-spiro[4.5]dec-1-ene-8-sulfonyl}-vinyl)-benzyl]-pyrrolidine-2,5-dione]	50	
Cc1cc(C2=NC3(CCN(S(=O)(=O)/C=C/c4c(C)cc(C(=O)N5CCC(O)(CF)CC5)cc4C)CC3)C(=O)N2)c(C)cc1F [Compound 1239, 2-(4-Fluoro-2,5-dimethyl-phenyl)-8-{(E)-2-[4-(4-fluoromethyl-4-hydroxy-piperidine-1-carbonyl)-2,6-dimethyl-phenyl]-ethenesulfonyl}-1,3,8-triaza-spiro[4.5]dec-1-en-4-one]	91	
CCOc1cc(NC(C)=O)ccc1/C=C/S(=O)(=O)N1CCC2(CC1)N=C(C1CCC(C)CC1)NC2=O (stereo not drawn) [Compound 509, N-(3-ethoxy-4-{(E)-2-[2-(4-methyl-cyclohexyl)-4-oxo-1,3,8-triaza-spiro[4.5]dec-1-ene-8-sulfonyl]-vinyl}-phenyl)-acetamide]	70	
Cc1cc(C(=O)N2CCN(S(C)(=O)=O)CC2)ccc1CCS(=O)(=O)N1CCC2(CC1)N=C(c1cccc(C(F)(F)F)c1)NC2=O [Compound 352, 8-{2-[4-(4-Methanesulfonyl-piperazine-1-carbonyl)-2-methyl-phenyl]-ethanesulfonyl}-2-(3-trifluoromethyl-phenyl)-1,3,8-triaza-spiro[4.5]dec-1-en-4-one]	19	
Cc1cc(C(=O)N2CCC(C)(O)CC2)cc(C)c1/C=C/S(=O)(=O)N1CCC2(CC1)N=C(c1ccc(S(F)(F)(F)(F)F)cc1)NC2=O [Compound 1189, 8-{(E)-2-[4-(4-hydroxy-4-methyl-piperidine-1-carbonyl)-2,6-dimethyl-phenyl]-ethenesulfonyl}-2-(4-pentafluorosulfanyl-phenyl)-1,3,8-triaza-spiro[4.5]dec-1-en-4-one]	104	
CC(=O)N(c1cc(C)c(/C=C/S(=O)(=O)N2CCC3(CC2)N=C(c2cccc(OC(F)(F)F)c2)NC3=O)c(C)c1)C1CCOCC1 [Compound 616, N-(3,5-dimethyl-4-{(E)-2-[4-oxo-2-(3-trifluoromethoxy-phenyl)-1,3,8-triaza-spiro[4.5]dec-1-ene-8-sulfonyl]-vinyl}-phenyl)-N-(tetrahydro-pyran-4-yl)-acetamide]	94	
CC(=O)Nc1ccc(CCS(=O)(=O)N2CCC3(CC2)N=C([C@H]2CC[C@H](CC(F)(F)F)CC2)NC3=O)c(C)c1 [Compound 922, N-[3-methyl-4-(2-{4-oxo-2-[4-(2,2,2-trifluoro-ethyl)-cyclohexyl]-1,3,8-triaza-spiro[4.5]dec-1-ene-8-sulfonyl}-ethyl)-phenyl]-acetamide]	84	
Cc1cc(CNC(=O)OC(C)(C)C)ccc1CCS(=O)(=O)N1CCC2(CC1)N=C(C(C)(C)C)NC2=O [Compound 162, {4-[2-(2-tert-Butyl-4-oxo-1,3,8-triaza-spiro[4.5]dec-1-ene-8-sulfonyl)-ethyl]-3-methyl-benzyl}-carbamic acid tert-butyl ester]	43	
CC1(C)OC[C@H](Cn2cc(F)c3c(/C=C/S(=O)(=O)N4CCC5(CC4)N=C(C4CCCCC4)NC5=O)cccc32)O1 [Compound 202, 2-cyclohexyl-8-{(E)-2-[1-((S)-2,2-dimethyl-[1,3]dioxolan-4-ylmethyl)-3-fluoro-1H-indol-4-yl]-ethenesulfonyl}-1,3,8-triaza-spiro[4.5]dec-1-en-4-one]	27	
COC(=O)c1cccc(C2=NC3(CCN(S(=O)(=O)CCc4ccc(C(=O)N(C)C)cc4C)CC3)C(=O)N2)c1 [Compound 174, 3-{8-[2-(4-Dimethylcarbamoyl-2-methyl-phenyl)-ethanesulfonyl]-4-oxo-1,3,8-triaza-spiro[4.5]dec-1-en-2-yl}-benzoic acid methyl ester]	68	
CC(C)COC(=O)NCc1ccc(/C=C/S(=O)(=O)N2CCC3(CC2)N=C(C2CCCCC2)NC3=O)cc1 [Compound 486, {4-[(E)-2-(2-cyclohexyl-4-oxo-1,3,8-triaza-spiro[4.5]dec-1-ene-8-sulfonyl)-vinyl]-benzyl}-carbamic acid isobutyl ester]	59	
Cc1cc(N(C)c2nccs2)cc(C)c1CCS(=O)(=O)N1CCC2(CC1)N=C([C@H]1CC[C@H](C)CC1)NC2=O [Compound 475, 8-{2-[2,6-Dimethyl-4-(methyl-thiazol-2-yl-amino)-phenyl]-ethanesulfonyl}-2-(4-methyl-cyclohexyl)-1,3,8-triaza-spiro[4.5]dec-1-en-4-one]		84
Cc1cc(C(=O)N2CCC(C)(O)CC2)cc(C)c1CCS(=O)(=O)N1CCC2(CC1)N=C(c1ccc(C(F)(F)F)c(Cl)c1)NC2=O [Compound 1236, 2-(3-chloro-4-trifluoromethyl-phenyl)-8-{2-[4-(4-hydroxy-4-methyl-piperidine-1-carbonyl)-2,6-dimethyl-phenyl]-ethanesulfonyl}-1,3,8-triaza-spiro[4.5]dec-1-en-4-one]	99	
O=C(NCCO)Nc1ccc(CCS(=O)(=O)N2CCC3(CC2)N=C(C2CCCCC2)NC3=O)c(C(F)(F)F)c1 [Compound 278, 1-{4-[2-(2-cyclohexyl-4-oxo-1,3,8-triaza-spiro[4.5]dec-1-ene-8-sulfonyl)-ethyl]-3-trifluoromethyl-phenyl}-3-(2-hydroxy-ethyl)-urea]	59	
CC(C)(C)COC(=O)N1CCCC(C2=NC3(CCN(S(=O)(=O)CCc4cccc5ccccc45)CC3)C(=O)N2)C1 (stereo not drawn) [Compound 465, 3-[8-(2-naphthalen-1-yl-ethanesulfonyl)-4-oxo-1,3,8-triaza-spiro[4.5]dec-1-en-2-yl]-piperidine-1-carboxylic acid 2,2-dimethyl-propyl ester]	66	
Cc1cc(C(=O)N(C)C)ccc1CCS(=O)(=O)N1CCC2(CC1)N=C(c1ccc(OC(F)F)cc1)NC2=O [Compound 118, 4-{2-[2-(4-difluoromethoxy-phenyl)-4-oxo-1,3,8-triaza-spiro[4.5]dec-1-ene-8-sulfonyl]-ethyl}-3,N,N-trimethyl-benzamide]	73	
